These results are taken from US10738275B2, “Paenibacillus sp. strain, cultivation method and use of the same” (BRIGHT DAIRY & FOOD CO., LTD, priority 2016, dated 2020).

The subject of one test is All bacteria. As to the kind of experiment: in-vitro culture of infant fecal flora, PCR-intestinal microarray detection. It counts as cell-based, infants' fecal flora. Conditions: 0.4% (w/v) added, infant fecal flora in SIEM, anaerobic, 8 hours, 37° C.; blank control defined as 0. How it is done: (§1) The standard culture solution of fecal flora is prepared in accordance with the method of Minekus et al (Models of the gastrointestinal tract to study microbial interactions Original Research Article Biology of Growing Animals, 2005, 2:142-154).
(2) Certain amount of standard ileum efflux culture medium (SIEM, with 0.047 g/L pectin, 0.047 g/L xyloglucan, 0.047 g/L arabinogalactan, 0.047 g/L amylose, 0.392 g/L starch, 24.0 g/L casein, 17.0 g/L Tween 80, 24.0 g/L bacto peptone, 0.4 g/L oxgall, and 0.2 g/L cysteine) is added into a 96-well microtitration plate. Then, the 0.1% of the standard culture solution of fecal flora is added. The percentage refers to the volume percentage of the standard ileum efflux culture medium. Then, 0.4% of the purified extracellular polysaccharide (“BD3526 extracellular polysaccharide” for short) obtained in Example 11 and 0.4% of the commercialized fructooligosaccharide (FOS for short) are added into different wells among the 96 wells respectively. The final volume of liquid in each well is 1.5 mL. Meanwhile, the blank control is arranged. They are anaerobically cultured for 8 hours under 37° C. The percentage refers to the mass-volume percentage of the final volume of the liquid in a well of the 96-well microtitration plate. […]

The next test deals with All bifidobacteria. The test is described as above. In kind it is cell-based, bifidobacteria in infants' fecal flora. Conditions: 0.4% (w/v) added, 8 hours, 37° C.; for The increased log (ORF/mL) value of the flora in samples with respect to the blank control, All bifidobacteria: infant fecal flora in SIEM, anaerobic, blank control defined as 0. The method, then: as §1
(§2) (2) Certain amount of standard ileum efflux culture medium (SIEM, with 0.047 g/L pectin, 0.047 g/L xyloglucan, 0.047 g/L arabinogalactan, 0.047 g/L amylose, 0.392 g/L starch, 24.0 g/L casein, 17.0 g/L Tween 80, 24.0 g/L bacto peptone, 0.4 g/L oxgall, and 0.2 g/L cysteine) is added into a 96-well microtitration plate. Then, the 0.1% of the standard culture solution of fecal flora is added. The percentage refers to the volume percentage of the standard ileum efflux culture medium. Then, 0.4% of the purified extracellular polysaccharide (“BD3526 extracellular polysaccharide” for short) obtained in Example 11 and 0.4% of the commercialized fructooligosaccharide (FOS for short) are added into different wells among the 96 wells respectively. The final volume of liquid in each well is 1.5 mL. Meanwhile, the blank control is arranged. They are anaerobically cultured for 8 hours under 37° C. The percentage refers to the mass-volume percentage of the final volume of the liquid in a well of the 96-well microtitration plate.
(§3) (3) Once the cultivation is completed, the fermentation broth is mixed with 250 μL of lysis buffer, […], of zirconium bead liquid (0.1 mm) and 200 μL of phenol solution. Then they are homogenized on the bead beater (BIO SPEC Inc. U.S.) for twice (2 minutes for each time). The DNA is extracted with DNA Kit (TIANGEN BIOTECH CO., LTD). Then, PCR-intestinal microarray detection method (SALAZAR N, GUEIMONDE M, HERNANDEZ-BARRANCO A M, et al. Exopolysaccharides produced by intestinal Bifidobacterium strains act as fermentable substrates for human intestinal bacteria. Applied and environmental microbiology, 2008, 74(15): 4737-45.) is used to analyze the number of floras in samples with respect to that of the blank control (standard solution of fecal flora cultured without adding polysaccharide).

The next test concerns B. Longum. The description is as above. It counts as cell-based. Conditions: 0.4% (w/v) added, infant fecal flora in SIEM, anaerobic, 8 hours, 37° C.; blank control defined as 0. How it is done: as §1, §2, §3
A further test deals with B. breve. The test is described as above. The conditions noted are these: 0.4% (w/v) added, infant fecal flora in SIEM, anaerobic, 8 hours, 37° C.; blank control defined as 0. It counts as cell-based. How it is done:
as §1, §2, §3

Another test concerns B. infantis. Described as above. In kind it is cell-based. Conditions: 0.4% (w/v) added, infant fecal flora in SIEM, anaerobic, 8 hours, 37° C.; blank control defined as 0. How it is done:
as §1, §2, §3

A further test has as its system human intestinal flora. As to the kind of experiment: in-vitro culture of adult fecal flora, PCR-DGGE of V3 area for total bacteria. It counts as cell-based. The conditions noted are these: 0.4% added, faeces of healthy adults, anaerobic, 24 hours, 37° C. How it is done: (1) The faeces of 30 healthy adults (male or female, with the age range from 23 to 25, excluding those who have intestinal diseases or taking antibiotic drugs recently). They are dissolved in pH7.3-phosphate buffer (8 g/L-NaCl, 0.2 g/L-KCl, 1.15 g/L-NaHPO4, and 0.2 g/L-KH2PO4) and mixed uniformly. It is added into the culture system at a volume ratio of 1:10. Then, 0.4% of the purified extracellular polysaccharide (BD3526EPS for short) obtained in Embodiment 11 and 0.4% of the commercialized fructooligosaccharide (FOS for short) are added into the culture system respectively. Meanwhile, the blank control is arranged. They are anaerobically cultured for 24 hours under 37° C. The percentages refer to the mass-volume percentages of the culture system.
(2) Once the culture is completed, the phenol-chloroform method (ERCOLINI D, HILL P J, DODD C E. Bacterial community structure and location in Stilton cheese. Applied and environmental microbiology, 2003, 69(6): 3540-8.) is used to extract the DNA of the cultures and fecal flora. […]

On to “fructooligosaccharide [FOS, reference compound]”, for which, in the test with All bacteria, the “The increased log (ORF/mL) value of the flora in samples with respect to the blank control, All bacteria” value is 0.12 log (ORF/mL). In the test with All bifidobacteria, the “The increased log (ORF/mL) value of the flora in samples with respect to the blank control, All bifidobacteria” value was 1.07 log (ORF/mL). Also, the “The increased log (ORF/mL) value of the flora in samples with respect to the blank control, B. Longum” value in the test on B. Longum was 0.37 log (ORF/mL). Also, the “The increased log (ORF/mL) value of the flora in samples with respect to the blank control, B. breve” value with B. breve was 1.18 log (ORF/mL). In addition, the “The increased log (ORF/mL) value of the flora in samples with respect to the blank control, B. infantis” value in the test with B. infantis is −0.121 log (ORF/mL).
On to “levan [BD3526 extracellular polysaccharide]”, for which the “The increased log (ORF/mL) value of the flora in samples with respect to the blank control, All bacteria” value in the test with All bacteria is 0.448 log (ORF/mL). Also, in the test on All bifidobacteria, the “proliferation of the bifidobacteria in infants' fecal flora compared with the blank control group (FIG. 11), in words” value was “can also promote the proliferation of the bifidobacteria in infants' fecal flora” and the “The increased log (ORF/mL) value of the flora in samples with respect to the blank control, All bifidobacteria” value is recorded as 0.74 log (ORF/mL). The “The increased log (ORF/mL) value of the flora in samples with respect to the blank control, B. Longum” value in the test on B. Longum is 0.36 log (ORF/mL). In addition, the “The increased log (ORF/mL) value of the flora in samples with respect to the blank control, B. breve” value in the test with B. breve is 0.81 log (ORF/mL). Besides, in the test on B. infantis, the “The increased log (ORF/mL) value of the flora in samples with respect to the blank control, B. infantis” value is on record as 0.017 log (ORF/mL). Moreover, the “brightness of PCR-DGGE stripes (FIG. 12), proliferation of bacteria in human intestinal flora, in words” value in the test with human intestinal flora is “significantly brighter than those of the FOS group and the blank control group”.
